Tests used:
[1] = target: HLA B*0702 (Homo sapiens, UniProt P01889); type: binding; details: positional scanning combinatorial 9-mer library; normalized to 1.0 for the best residue at each position
[2] = target: HLA B*5401 (Homo sapiens, UniProt P01889, A329T/C349S/D138N/D201E/E176V/E187T/E204Q/E69G/I76V/K202T/L119W/R155S/R180L/S121T/S35A/S48A/V127L/V306I/V36M/Y140L); type: binding
[3] = target: HLA B*1501 (Homo sapiens, UniProt P01889, A329T/A93T/A95T/C349S/D201E/D98Y/E187L/E204Q/E69M/E70A/K202T/N87E/Q94N/R155S/R180W/S121R/S35A/S48A/V306I/V36M/Y140S/Y91S); test: biochemical; type: binding
[4] = target: HLA B*1503 (Homo sapiens, UniProt P01889, A329T/A93T/A95T/C349S/D201E/D98Y/E187L/E204Q/K202T/N87E/Q94N/R155S/R180L/S121R/S35A/V306I/V36M/Y140S/Y91S); test: biochemical; type: binding
[5] = target: HLA B*5101 (Homo sapiens, UniProt P01889, A329T/A93T/A95T/C349S/D138N/D201E/D98Y/E187L/E204Q/E69T/G107R/I218V/K202T/L105A/L119W/N104I/Q94N/R106L/R155S/R180L/S101N/S121T/S35A/S48A/V306I/V36M/Y195H/Y91F); type: binding
[6] = target: HLA B*5802 (Homo sapiens, UniProt P01889, A329T/C349S/D201E/D98Y/E176V/E187L/E204Q/E69T/G107R/I218V/I90N/K202T/L105A/N104I/N87E/Q89R/Q94S/R106L/R155S/R180L/R86G/S101N/S121W/S35A/S48A/V127L/V306I/V36M/Y140S/Y91M); type: binding
[7] = target: HLA A*3001 (Homo sapiens, UniProt P04439, D140H/D185E/E176W/F33S/G80R/H175R/K168Q/R138E/R41S); test: biochemical; type: binding
[8] = target: HLA A*3201 (Homo sapiens, UniProt P04439, A270S/D101S/D185E/E176V/E277Q/F133L/G103R/G107R/G231S/H175R/I121M/I218V/I322F/K168Q/L105A/L300P/L318F/M331R/P208A/P217A/Q94H/R106L/R138Q/S129P/T104I/T323A/T345S/V100E/V321M/V358M); test: biochemical; type: binding
[9] = target: HLA B*5801 (Homo sapiens, UniProt P01889, A329T/C349S/D201E/D98Y/E176V/E187L/E204Q/E69T/G107R/I218V/I90N/K202T/L105A/L119I/N104I/N87E/Q89R/Q94S/R106L/R155S/R180L/R86G/S101N/S121R/S35A/S48A/T118I/V127L/V306I/V36M/Y140S/Y91M); type: binding
[10] = target: HLA A*0201 (Homo sapiens, UniProt P04439, D140Y/D185E/D98H/E176V/E277Q/G131W/G231S/I119V/I121R/I166T/I218V/L300P/L318F/N151K/N90K/P208A/P217A/Q86G/Q94H/R138H/R169H/T345S); details: positional scanning combinatorial 9-mer library; normalized to 1.0 for the best residue at each position
[11] = target: HLA B*3501 (Homo sapiens, UniProt P01889, A329T/A93T/A95T/C349S/D201E/D98Y/E176V/E187L/E204Q/E69T/I218V/K202T/L119I/Q94N/R155S/R180L/S121R/S35A/S48A/T118I/V127L/V306I/V36M/Y140S/Y91F); type: binding
[12] = target: H-2 D^b (Mus musculus, UniProt P01899); type: binding
[13] = target: HLA B*5301 (Homo sapiens, UniProt P01889, A329T/A93T/A95T/C349S/D201E/D98Y/E176V/E187L/E204Q/E69T/G107R/I218V/K202T/L105A/L119I/N104I/Q94N/R106L/R155S/R180L/S101N/S121R/S35A/S48A/T118I/V127L/V306I/V36M/Y140S/Y91F); type: binding
[14] = target: H-2 D^d (Mus musculus, UniProt P01900); type: binding
[15] = target: H-2 K^k (Mus musculus, UniProt P04223); type: binding
[16] = target: HLA B*0801 (Homo sapiens, UniProt P01889, A93T/A95T/D138N/E176V/E187T/K202T/Q94N/R180D/S35A/V36M/Y33D/Y91F); test: biochemical; type: binding
[17] = target: HLA B*2705 (Homo sapiens, UniProt P01889, D138H/D201E/E176V/E204Q/G107R/H137Y/K202T/N104T/N87E/Q56L/Q94K/R106L/R155S/R180L/S101D/S121N/S48T/Y140D/Y33H/Y91C); type: binding; details: positional scanning combinatorial 9-mer library; normalized to 1.0 for the best residue at each position
[18] = target: HLA A*6802 (Homo sapiens, UniProt P04439, A269V/D140Y/D185E/E176V/E277Q/E87N/F33Y/G231S/I121R/I166T/I218V/L180W/L300P/L318F/N151K/P208A/P217A/Q86R/R138H/R169H/S129P/T345S/V36M); type: binding

H-2 D^d, sequence (P01900 whole entry, looked up): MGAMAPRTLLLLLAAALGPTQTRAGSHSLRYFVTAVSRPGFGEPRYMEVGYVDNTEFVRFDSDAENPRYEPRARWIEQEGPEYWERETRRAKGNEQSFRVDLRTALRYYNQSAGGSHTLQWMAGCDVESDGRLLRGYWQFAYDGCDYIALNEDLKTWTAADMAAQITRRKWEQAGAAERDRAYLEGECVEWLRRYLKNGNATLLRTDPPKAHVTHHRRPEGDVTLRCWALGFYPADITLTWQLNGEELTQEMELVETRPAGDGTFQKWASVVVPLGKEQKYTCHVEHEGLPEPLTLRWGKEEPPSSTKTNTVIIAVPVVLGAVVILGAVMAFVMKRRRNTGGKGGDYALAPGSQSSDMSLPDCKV
H-2 K^k, sequence (P01887 21-119): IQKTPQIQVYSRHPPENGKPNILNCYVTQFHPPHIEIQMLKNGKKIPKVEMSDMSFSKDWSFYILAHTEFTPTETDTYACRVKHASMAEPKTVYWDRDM
H-2 K^k, sequence (P04223 22-369): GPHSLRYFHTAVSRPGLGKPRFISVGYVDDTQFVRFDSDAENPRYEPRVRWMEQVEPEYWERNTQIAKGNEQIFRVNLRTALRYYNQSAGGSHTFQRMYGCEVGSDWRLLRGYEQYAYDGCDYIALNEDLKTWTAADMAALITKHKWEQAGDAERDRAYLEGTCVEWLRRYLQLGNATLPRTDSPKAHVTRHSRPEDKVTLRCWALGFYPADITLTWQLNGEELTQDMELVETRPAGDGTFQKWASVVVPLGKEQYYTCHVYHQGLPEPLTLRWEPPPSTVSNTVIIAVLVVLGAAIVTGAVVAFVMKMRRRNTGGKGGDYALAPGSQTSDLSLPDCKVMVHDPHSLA
H-2 D^b, sequence (P01887 21-119): as the sequence (P01887 21-119) above
H-2 D^b, sequence (P01899 25-362): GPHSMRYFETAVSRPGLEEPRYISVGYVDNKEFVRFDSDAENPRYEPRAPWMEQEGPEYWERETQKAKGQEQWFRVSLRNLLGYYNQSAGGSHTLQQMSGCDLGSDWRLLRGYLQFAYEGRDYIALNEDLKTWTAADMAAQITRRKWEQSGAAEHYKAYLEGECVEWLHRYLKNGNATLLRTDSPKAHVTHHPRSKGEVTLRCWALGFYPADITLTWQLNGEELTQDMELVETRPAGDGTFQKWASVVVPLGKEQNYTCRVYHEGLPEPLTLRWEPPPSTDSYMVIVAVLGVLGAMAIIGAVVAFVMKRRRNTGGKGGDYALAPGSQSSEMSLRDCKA

Row | Sequence | Normalized average relative binding affinity (ARB), HLA B*0702 [1] | Normalized average relative binding affinity (ARB), HLA B*5401 [2] | Normalized average relative binding affinity (ARB), HLA B*1501 [3] | Normalized average relative binding affinity (ARB), HLA B*1503 [4] | Normalized average relative binding affinity (ARB), HLA B*5101 [5] | Normalized average relative binding affinity (ARB), HLA B*5802 [6] | Normalized average relative binding affinity (ARB), HLA A*3001 [7] | Normalized average relative binding affinity (ARB), HLA A*3201 [8] | Normalized average relative binding affinity (ARB), HLA B*5801 [9] | Normalized average relative binding affinity (ARB), HLA A*0201 [10] | Normalized average relative binding affinity (ARB), HLA B*3501 [11] | Normalized average relative binding affinity (ARB), H-2 Db [12] | Normalized average relative binding affinity (ARB), HLA B*5301 [13] | Normalized average relative binding affinity (ARB), H-2 Dd [14] | Normalized average relative binding affinity (ARB), H-2 Kk [15] | Normalized average relative binding affinity (ARB), HLA B*0801 [16] | Normalized average relative binding affinity (ARB), HLA B*2705 [17] | Normalized average relative binding affinity (ARB), HLA A*6802 [18]
1 | XXVXXXXXX [3064.0058] | 0.040 | 0.034 | 0.14 | 1.0 | 0.25 | 0.56 | 0.0059 | 0.31 | 1.0 | 0.25 | 0.19 | 0.17 | 0.11 | 0.0094 | 0.26 | 0.024 | 0.19 | 0.64
2 | XXWXXXXXX [3064.0059] | 0.14 | 1.0 | 0.16 | 0.35 | 0.47 | 0.95 | 0.0080 | 0.95 | 0.29 | 0.58 | 0.61 | 0.18 | 0.076 | 0.0028 | 0.48 | 0.19 | 0.68 | 0.70
3 | XXXAXXXXX [3064.0061] | 0.23 | 0.41 | 0.40 | 0.41 | 0.39 | 0.51 | 0.48 | 0.38 | 0.46 | 0.90 | 0.42 | 0.69 | 0.36 | 0.52 | 0.63 | 0.40 | 0.28 | 0.24
4 | XXXCXXXXX [3064.0062] | 0.18 | 0.22 | 0.39 | 0.34 | 0.26 | 0.52 | 0.31 | 0.12 | 0.23 | 0.20 | 0.089 | 1.0 | 0.14 | 0.56 | 0.37 | 0.41 | 0.25 | 0.13
5 | XXXDXXXXX [3064.0063] | 0.16 | 0.28 | 0.30 | 0.13 | 0.74 | 0.069 | 0.22 | 0.14 | 0.17 | 0.91 | 0.18 | 0.072 | 0.26 | 0.30 | 0.46 | 0.072 | 0.26 | 0.31
6 | XXYXXXXXX [3064.0060] | 0.061 | 0.11 | 0.60 | 0.44 | 0.38 | 0.72 | 0.016 | 1.0 | 0.34 | 0.88 | 0.29 | 0.24 | 0.078 | 0.0028 | 0.52 | 0.13 | 0.40 | 0.26

— article PMC2248166, “Quantitative peptide binding motifs for 19 human and mouse MHC class I molecules derived using positional scanning combinatorial peptide libraries” (Immunome Research, 2008)
